Counter-ions that a name gives are not always drawn.
Assays:
[1] = biological target: T1, full-length proMMP9(1-707) (SEQ ID NO:1), activation by catalytic MMP3 (Homo sapiens, UniProt P14780, R574P); test: proMMP9/MMP3 P126 Activation Assay; type: biochemical
T1 construct: made in house; host or cells: HEK293 (proMMP9, secreted); E. coli (MMP3)
Protocol: proMMP9/MMP3 P126 Activation Assay
The reaction volume was 50 μL. […] Reactivity of residual MMP3 towards P-126 substrate was minimal under these conditions.

[2] = biological target: T2, proMMP9(20-445;ΔFnII) (SEQ ID NO:6) (Homo sapiens, UniProt P14780, DEL216-390); test: ThermoFluor binding assay with proMMP9(20-445;ΔFnII)
T2 construct: start methionine (N); made in house; host or cells: E. coli BL21(DE3) RIL
T2 sequence (P14780 with tags, fused parts or gaps DEL216-390): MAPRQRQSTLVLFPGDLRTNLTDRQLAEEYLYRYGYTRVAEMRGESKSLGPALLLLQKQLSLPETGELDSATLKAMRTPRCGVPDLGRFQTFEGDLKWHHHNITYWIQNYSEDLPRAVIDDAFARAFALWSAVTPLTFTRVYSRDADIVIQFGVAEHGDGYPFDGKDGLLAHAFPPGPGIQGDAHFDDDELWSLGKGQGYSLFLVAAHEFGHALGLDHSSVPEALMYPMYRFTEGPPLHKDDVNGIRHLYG
Protocol: The ThermoFluor® (TF) assay is a 384-well plate-based binding assay that measures thermal stability of proteins (Biomol Screen 2001, 6, 429-40; Biochemistry 2005, 44, 5258-66). The experiments were carried out using instruments available from Johnson & Johnson Pharmaceutical Research & Development, LLC. TF dye used in all experiments was […] (1,8-ANS) (Invitrogen: A-47).
Compounds were arranged in a pre-dispensed plate (Greiner Bio-one: 781280), wherein compounds were serially diluted in 100% DMSO across 11 columns within a series. Columns 12 and 24 were used as DMSO reference and contained no compound. For multiple compound concentration-response experiments, the compound aliquots ([…]) were robotically predispensed directly into black 384-well polypropylene PCR microplates (Abgene: TF-0384/k) using a Cartesian Hummingbird liquid handler (DigiLab, Holliston, Mass.). Following compound dispense, protein and dye solutions were added to achieve the final assay volume of 3 μL. The assay solutions were overlayed with 1 μL of silicone oil (Fluka, type DC 200: 85411) to prevent evaporation.
Assay plates were robotically loaded onto a thermostatically controlled PCR-type thermal block and then heated from 40 to 90° C. at a ramp-rate of 1° C./min for all experiments. Fluorescence was measured by continuous illumination with UV light (Hamamatsu LC6) supplied via fiber optics and filtered through a band-pass filter (380-400 nm; >60D cutoff). Fluorescence emission of the entire 384-well plate was detected by measuring light intensity using a CCD camera (Sensys, Roper Scientific) filtered to detect 500±25 nm, resulting in simultaneous and independent readings of all 384 wells. A single image with 20-sec exposure time was collected at each temperature, and the sum of the pixel intensity in a given area of the assay plate was recorded vs temperature and fit to standard equations to yield the Tm (J Biomol Screen 2001, 6, 429-40).
Thermodynamic parameters necessary for fitting compound binding for each proMMP were estimated by differential scanning calorimetry (DSC) and from ThermoFluor® data. The heat capacity of unfolding for each protein was estimated from the molecular weight and from ThermoFluor® dosing data.
ThermoFluor® with proMMP9(20-445;ΔFnII) (SEQ ID NO:6)
The protein sample preparations included a desalting buffer exchange step via a PD-10 gravity column (GE Healthcare). The desalting buffer exchange was performed prior to diluting the protein to the final assay concentration of 2.8 μM proMMP9(20-445;ΔFnII) (SEQ ID NO:6). The concentration of proMMP9(20-445;ΔFnII) (SEQ ID NO:6) was determined spectrophotometrically based on a calculated extinction coefficient of ε280=39880 M^−1cm^−1, a calculated molecular weight of 28.2 kDa, and calculated pI of 5.5. ThermoFluor® reference conditions were define as follows: 80 μg/mL (2.8 μM) proMMP9(20-445;ΔFnII) (SEQ ID NO:6), 50 μM 1,8-ANS, pH 7.0 Buffer (50 mM HEPES pH 7.0, 100 mM NaCl, 0.001% Tween-20, 2.5 mM MgCl2, 300 μM CaCl2). The thermodynamic parameters for proMMP9(20-445;ΔFnII) (SEQ ID NO:6) are as follows: Tm (° C.)=72 (+/−0.1), ΔUH(Tm) (cal mol^−1)=160000(+/−5000), ΔUS(Tm) (cal mol^−1 K^−1)=434, ΔUCp (cal mol^−1 K^−1)=2400.

T1 sequence (P14780 20-707 R574P): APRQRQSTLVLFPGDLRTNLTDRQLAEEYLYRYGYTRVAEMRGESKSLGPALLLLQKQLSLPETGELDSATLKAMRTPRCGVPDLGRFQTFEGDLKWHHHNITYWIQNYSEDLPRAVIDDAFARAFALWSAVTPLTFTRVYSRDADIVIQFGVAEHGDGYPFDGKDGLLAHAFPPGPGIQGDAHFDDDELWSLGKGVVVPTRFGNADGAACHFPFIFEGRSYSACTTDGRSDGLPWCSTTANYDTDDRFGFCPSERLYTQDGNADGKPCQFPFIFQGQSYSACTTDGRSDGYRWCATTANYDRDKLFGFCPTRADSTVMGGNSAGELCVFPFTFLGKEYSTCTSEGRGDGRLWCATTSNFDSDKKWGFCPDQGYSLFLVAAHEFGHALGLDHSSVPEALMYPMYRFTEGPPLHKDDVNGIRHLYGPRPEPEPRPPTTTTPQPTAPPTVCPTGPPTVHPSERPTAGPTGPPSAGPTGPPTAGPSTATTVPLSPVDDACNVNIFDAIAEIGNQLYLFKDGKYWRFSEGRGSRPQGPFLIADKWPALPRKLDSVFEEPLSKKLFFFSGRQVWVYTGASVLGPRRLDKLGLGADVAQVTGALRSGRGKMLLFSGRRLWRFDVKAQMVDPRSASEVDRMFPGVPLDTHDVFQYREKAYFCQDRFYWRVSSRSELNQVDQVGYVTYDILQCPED

| IC50 [1] | Kd [2] | SMILES |
| --- | --- | --- |
| 240 nM | 110 nM | CCN1CCC(NC(=O)c2ccc(-c3csc(Nc4cc(S(N)(=O)=O)ccc4OC(C)C)n3)cn2)CC1 [Example 57, 5-[2-(2-Isopropoxy-5-sulfamoyl-phenylamino)-thiazol-4-yl]-pyridine-2-carboxylic acid (1-ethyl-piperidin-4-yl)-amide.TFA] |
| 300 nM |  | CC(C)Oc1ccc(S(N)(=O)=O)cc1Nc1nc(-c2ccc(N3CCN(C4CC4)CC3)nc2)cs1 [Example 61, 3-((4-(6-(4-Cyclopropylpiperazin-1-yl)pyridin-3-yl)thiazol-2-yl)amino)-4-isopropoxybenzenesulfonamide.TFA] |
| 210 nM | 69 nM | CC(=O)N1CCN(c2ccc(-c3csc(Nc4cc(S(N)(=O)=O)ccc4OC(C)C)n3)cn2)CC1 [Example 65, 3-((4-(6-(4-Acetylpiperazin-1-yl)pyridin-3-yl)thiazol-2-yl)amino)-4-isopropoxybenzenesulfonamide.TFA] |
| > 20000 nM | 310 nM | CC(C)Oc1ccc(S(N)(=O)=O)cc1Nc1nc(-c2ccc(N3CCN(CCC(F)(F)F)CC3)nc2)cs1 [Example 66, 4-Isopropoxy-3-((4-(6-(4-(3,3,3-trifluoropropyl)piperazin-1-yl)pyridin-3-yl)thiazol-2-yl)amino)benzenesulfonamide.TFA] |
| 130 nM | 71 nM | CC1CN(c2ccc(-c3csc(Nc4cc(S(N)(=O)=O)ccc4OC(C)C)n3)cn2)CC(C)N1 (centres unmarked) [Example 67, 3-((4-(6-(3,5-Dimethylpiperazin-1-yl)pyridin-3-yl)thiazol-2-yl)amino)-4-isopropoxybenzenesulfonamide.TFA] |
| 130 nM | 71 nM | CC(C)Oc1ccc(S(N)(=O)=O)cc1Nc1nc(-c2ccc(N3C[C@@H](C)N[C@@H](C)C3)nc2)cs1 [Example 68, 3-((4-(6-(cis-3,5-Dimethylpiperazin-1-yl)pyridin-3-yl)thiazol-2-yl)amino)-4-isopropoxybenzenesulfonamide.TFA] |
| 100 nM | 65 nM | CC(C)Oc1ccc(S(N)(=O)=O)cc1Nc1nc(-c2ccc(N3CCNC(C)(C)C3)nc2)cs1 [Example 69, 3-((4-(6-(3,3-Dimethylpiperazin-1-yl)pyridin-3-yl)thiazol-2-yl)amino)-4-isopropoxybenzenesulfonamide.TFA] |
| 340 nM | 250 nM | CC(C)Oc1ccc(S(N)(=O)=O)cc1Nc1nc(-c2ccc(N3CCC(O)CC3)nc2)cs1 [Example 70, 3-((4-(6-(4-Hydroxypiperidin-1-yl)pyridin-3-yl)thiazol-2-yl)amino)-4-isopropoxybenzenesulfonamide.TFA] |
| 170 nM | 75 nM | CC(C)Oc1ccc(S(N)(=O)=O)cc1Nc1nc(-c2ccc(N3CCN(CC4CC4)CC3)nc2)cs1 [Example 71, 3-((4-(6-(4-(Cyclopropylmethyl)piperazin-1-yl)pyridin-3-yl)thiazol-2-yl)amino)-4-isopropoxybenzenesulfonamide.TFA] |
| 140 nM | 110 nM | CC(C)Oc1ccc(S(N)(=O)=O)cc1Nc1nc(-c2ccc(C3=CCNCC3)nc2)cs1 [Example 72, 4-Isopropoxy-3-((4-(1′,2′,3′,6′-tetrahydro-[2,4′-bipyridin]-5-yl)thiazol-2-yl)amino)benzenesulfonamide.TFA] |
| 210 nM | 120 nM | CC(C)Oc1ccc(S(N)(=O)=O)cc1Nc1nc(-c2ccc(N3CCNC(C(N)=O)C3)nc2)cs1 (centres unmarked) [Example 73, 4-(5-(2-((2-Isopropoxy-5-sulfamoylphenyl)amino)thiazol-4-yl)pyridin-2-yl)piperazine-2-carboxamide.TFA] |
| 160 nM | 170 nM | COCCN(C)c1ccc(-c2csc(Nc3cc(S(N)(=O)=O)ccc3OC(C)C)n2)cn1 [Example 74, 4-Isopropoxy-3-((4-(6-((2-methoxyethyl)(methyl)amino)pyridin-3-yl)thiazol-2-yl)amino)benzenesulfonamide.TFA] |
| 110 nM | 280 nM | CC(C)Oc1ccc(S(N)(=O)=O)cc1Nc1nc(-c2ccc(N(C)CCO)nc2)cs1 [Example 75, 3-((4-(6-((2-Hydroxyethyl)(methyl)amino)pyridin-3-yl)thiazol-2-yl)amino)-4-isopropoxybenzenesulfonamide.TFA] |
| > 20000 nM | 240 nM | CC(C)Oc1ccc(S(N)(=O)=O)cc1Nc1nc(-c2ccc(N3CCCCC3)nc2)cs1 [Example 76, 4-Isopropoxy-3-((4-(6-(piperidin-1-yl)pyridin-3-yl)thiazol-2-yl)amino)benzenesulfonamide.TFA] |
| > 20000 nM | 1900 nM | CC1CCN(c2ccc(-c3csc(Nc4cc(S(N)(=O)=O)ccc4OC(C)C)n3)cn2)CC1 [Example 77, 4-Isopropoxy-3-((4-(6-(4-methylpiperidin-1-yl)pyridin-3-yl)thiazol-2-yl)amino)benzenesulfonamide.TFA] |
| ~300 nM | 340 nM | COC1CCN(c2ccc(-c3csc(Nc4cc(S(N)(=O)=O)ccc4OC(C)C)n3)cn2)CC1 [Example 78, 4-Isopropoxy-3-((4-(6-(4-methoxypiperidin-1-yl)pyridin-3-yl)thiazol-2-yl)amino)benzenesulfonamide.TFA] |
| 340 nM | 150 nM | CC(C)Oc1ccc(S(N)(=O)=O)cc1Nc1nc(-c2ccc(N3CCC(CO)CC3)nc2)cs1 [Example 79, 3-((4-(6-(4-(Hydroxymethyl)piperidin-1-yl)pyridin-3-yl)thiazol-2-yl)amino)-4-isopropoxybenzenesulfonamide.TFA] |
| 360 nM | 150 nM | CC(C)Oc1ccc(S(N)(=O)=O)cc1Nc1nc(-c2ccc(N3CCNC(C(F)(F)F)C3)nc2)cs1 (centres unmarked) [Example 80, 4-Isopropoxy-3-((4-(6-(3-(trifluoromethyl)piperazin-1-yl)pyridin-3-yl)thiazol-2-yl)amino)benzenesulfonamide.TFA] |
| 130 nM | 130 nM | CC(C)Oc1ccc(S(N)(=O)=O)cc1Nc1nc(-c2ccc(C3CCNCC3)nc2)cs1 [Example 81, 4-Isopropoxy-3-((4-(6-(piperidin-4-yl)pyridin-3-yl)thiazol-2-yl)amino)benzenesulfonamide.TFA] |
| 370 nM | 99 nM | CC(C)Oc1ccc(S(N)(=O)=O)cc1Nc1nc(-c2ccc(N3CCn4ccnc4C3)nc2)cs1 [Example 82, 3-((4-(6-(5,6-Dihydroimidazo[1,2-a]pyrazin-7(8H)-yl)pyridin-3-yl)thiazol-2-yl)amino)-4-isopropoxybenzenesulfonamide.TFA] |
| 310 nM |  | CC(C)Oc1ccc(S(N)(=O)=O)cc1Nc1nc(-c2ccc(C(=O)NCC3CCN(C)CC3)nc2)cs1 [Example 95, 5-(2-((2-Isopropoxy-5-sulfamoylphenyl)amino)thiazol-4-yl)-N-((1-methylpiperidin-4-yl)methyl)picolinamide.TFA] |
|  | 96000 nM | CC(C)Oc1ccc(S(N)(=O)=O)cc1Nc1nc(-c2ccnc(Cl)c2)cs1 [Intermediate 9, 3-[4-(2-Chloro-pyridin-4-yl)-thiazol-2-ylamino]-4-isopropoxy-benzenesulfonamide.TFA] |

Reference: patent US20120129843A1, “PYRIDYL-THIAZOLYL INHIBITORS OF PRO-MATRIX METALLOPROTEINASE ACTIVATION” (priority 2010, published 2012)
